# Experimental data from US7884109B2, “Purine and imidazopyridine derivatives for immunosuppression” (Wyeth LLC, priority 2005, dated 2011).
# pIC50: −log10 of the molar value.
# Key:
# Human Jak3 = molecular target: T1, Human Jak3 (Homo sapiens, UniProt P52333); test: Jak3 Kinase Assay (HTRF, GST-Jak3 catalytic domain); format: biochemical; conditions: for pIC50: (R) and (S) enantiomer pair
# T1 construct: A fragment encoding the catalytic domain of Jak3 (508aa to 1124aa) was ligated with GST at 5′ end; made in house; host or cells: Sf9 insect cells (baculovirus, pFastBac 1)
# T1 sequence (P52333 508-1124): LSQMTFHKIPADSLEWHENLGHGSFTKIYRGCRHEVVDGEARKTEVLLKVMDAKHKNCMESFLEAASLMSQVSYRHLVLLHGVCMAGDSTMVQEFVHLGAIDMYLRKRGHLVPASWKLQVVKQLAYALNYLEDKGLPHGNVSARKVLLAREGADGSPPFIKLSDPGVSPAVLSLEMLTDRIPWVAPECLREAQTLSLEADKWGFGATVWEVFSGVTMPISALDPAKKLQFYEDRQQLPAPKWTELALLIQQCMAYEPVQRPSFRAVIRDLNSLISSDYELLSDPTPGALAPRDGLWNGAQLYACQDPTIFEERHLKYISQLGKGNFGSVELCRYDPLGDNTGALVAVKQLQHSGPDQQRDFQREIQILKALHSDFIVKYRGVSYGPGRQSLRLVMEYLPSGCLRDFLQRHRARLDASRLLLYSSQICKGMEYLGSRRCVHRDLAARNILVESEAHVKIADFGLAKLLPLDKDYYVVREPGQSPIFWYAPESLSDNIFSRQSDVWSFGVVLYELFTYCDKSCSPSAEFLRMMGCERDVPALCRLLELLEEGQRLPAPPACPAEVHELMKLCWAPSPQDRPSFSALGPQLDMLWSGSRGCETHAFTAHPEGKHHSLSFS
# Experimental: Human Jak3 cDNA was amplified by PCR. A fragment encoding the catalytic domain of Jak3 (508aa to 1124aa) was ligated with GST at 5′ end. This fused GST-Jak3 DNA fragment was cloned into the EcoRI site of the donor plasmid pFastBac 1 (Life Technologies #10359-016). The transformation, transposition, and transfection of insect cells (Sf9) were performed according to the manufacture's instructions. The cell lysate containing recombinant GST-Jak3 was used in the kinase assay. Anti-GST antibody (10 μg/ml, Sigma #G1417) was coated onto a 384-well plate at 4° C. overnight. Cell lysate containing GST-Jak3 (1:100 dilution) was added to the anti-GST coated plates, and GST-Jak3 was captured by immobilized anti-GST antibody. Testing compounds and substrate mix (50 mM HEPES, pH 7, 0.5 mM Na3VO4, 25 mM MgCl2, 1 mM DTT, 0.005% BSA, 1 μM ATP, and 4.5 μg/ml biotinyl poly-Glu,Ala,Tyr) were added to the plate to initiate the reaction. After a 60-min incubation, the reaction was stopped by 4 mM EDTA, and phosphorylation of biotinyl poly-Glu,Ala,Tyr was detected using 17 μg/ml Cy5-streptavidin (Amersham, #PA92005) and 2.7 μg/ml Europium-conjugated anti-phosphotyrosine antibody (PerkinElmer #AD0069) using homogeneous time-resolved fluorescence (HTRF) technology.
# [1] = tested on: IL-2-induced IFN-γ production; test: IL-2-Induced IFN-γ Production in the Mouse; format: in vivo; conditions: po, 1 h, 30 mg/kg by gavage one hour before IL-2, serum IFN-γ, female BALB/c mice, read-out: inhibition of IL-2-induced IFN-gamma production
# Experimental: Administration of IL-2 leads to an increase in serum IFN-γ in the mouse due to NK secretion of the cytokine (Thornton S, Kuhn K A, Finkelman F D and Hirsch R. NK cells secrete high levels of IFN-γ in response to in vivo administration of IL-2. Eur J Immunol 2001 31:3355-3360). The experiment was carried out essentially according to the protocol in Thornton et al. and the test compounds were administered in order to determine the level of inhibition attained. In summary, female BALB/c mice were fasted for 12-18 hours before a study but had free access to water at all times. Test compounds were administered by gavage one hour before intraperitoneal injection of IL-2 and capture antibody. At termination of the studies, the mice were sacrificed by carbon dioxide inhalation, terminal blood samples were collected by cardiac puncture and serum was generated. Serum was stored frozen until it was assayed for IFN-γ, as described by the kit manufacturer (BD Pharmingen™, San Diego, Calif.).
Compound,pIC50 (Human Jak3),Jak3 potency relative to the other enantiomer (Human Jak3; (R) versus (S) enantiomer),inhibition at 30 mg/kg [1]
O=c1[nH]c2cnc(-n3cnc4ccccc43)nc2n1[C@@H]1CCOc2c(F)cc(F)cc21,> 6.00,more potent than its corresponding (S) enantiomer,–
O=c1[nH]c2cnc(-n3cnc4ccccc43)nc2n1[C@H]1CCOc2c(F)cc(F)cc21,> 6.00,–,–
"C[C@@H]1CCN(C(=O)CC#N)C[C@@H]1N(C)c1ncnc2[nH]ccc12 [CP690550, reference compound]",–,–,96%
O=c1[nH]c2cnc(-n3cnc4ccccc43)nc2n1[C@@H]1CCOc2c(F)cccc21 [Example 114],–,–,> 40%
C[C@H](c1cccnc1)n1c(=O)[nH]c2cnc(-n3cnc4ccccc43)nc21 [Example 120],–,–,> 40%
O=C1CCC(n2c(=O)[nH]c3cnc(-n4cnc5ccccc54)nc32)c2ccccc21 (stereo not shown) [Example 135],–,–,> 40%
O=c1[nH]c2cnc(-n3cnc4ccc(F)cc43)nc2n1C1CCOc2c(F)cccc21 (stereo not shown) [Example 142],–,–,> 40%
O=c1[nH]c2cnc(-n3cnc4ccccc43)nc2n1C1CCOc2c(F)cc(F)cc21 (stereo not shown) [Example 151],–,–,> 40%
O=c1[nH]c2cnc(-n3cnc4ccccc43)nc2n1C1CCOc2c(F)ccc(F)c21 (stereo not shown) [Example 162],–,–,> 40%
